# Legend:
# [1] = tested on: CEN.PK113-7D snflΔ deletion strain; experiment: Growth sensitivity of SNFl gene deletion strain; format: cell-based, Saccharomyces cerevisiae; conditions: different concentrations; compared to wild-type strain
# Source text: The prototrophic wild-type Saccharomyces cerevisiae CEN.PK113-7D yeast strain genetic background (Euroscarf, Köhlerweg, Oberursel, Germany), and the Saccharomyces cerevisiae BY4743 strain (Euroscarf, Köhlerweg, Oberursel, Germany) were used. The CEN.PK113-7D snflΔ deletion strain was constructed. The standard rich Yeast-Extract Peptone Dextrose (YPD) medium (1% w/v Bacto yeast extract, 2% w/v Bacto peptone, and 2% w/v glucose) (BD, Franklin Lakes, New Jersey, United States of America), YPD agar (2.5% w/v Bacto agar) (BD, Franklin Lakes, New Jersey, United States of America), and synthetic defined (SD) medium (BD, Franklin Lakes, New Jersey, United States of America) used here contained 6.7 g/L Difco™ Yeast Nitrogen Base (without amino acids and with ammonium sulfate) (BD, Franklin Lakes, New Jersey, United States) and 2% w/v glucose. Rapamycin (Enzo Life Sciences, Farmingdale, New York, United States) stock solution was prepared in dimethyl sulfoxide (DMSO) (Sigma-Aldrich, St. Louis, Missouri, United States of America). […]
# IMR90 cells = experiment: CLS in human cells, propidium iodide fluorescence-based method (IMR90); format: cell-based; conditions: sixth day after seeding
# Method: Human embryonic kidney 293 (HEK293) cells (ATCC, Manassas, Virginia, United States of America), lung epithelial (A549) cells (ATCC, Manassas, Virginia, United States of America) and fibroblast (IMR90) cells (ATCC, Manassas, Virginia, United States of America) were cultured in the standard D10 medium, consisting of high-glucose DMEM (HyClone, Cytiva, Marlborough, Massachusetts, USA) supplemented with 10% Fetal Bovine Serum (FBS) (Gibco™, ThermoFisher Scientific, Waltham, Massachusetts, USA) and 1% Penicillin Streptomycin Solution (Gibco™, ThermoFisher Scientific, Waltham, Massachusetts, USA). All cells were cultured in a humidified incubator with 5% CO2 at 37° C.
# The stock solution of rapamycin, hemin, 5-fluorouracil, atorvastatin, and methotrexate was prepared in DMSO, followed by serial dilution to form various concentrations used in the experiment. The final DMSO concentration was kept at 0.05% in all experiments. The stock solution of 2,5-anhydro-D-mannitol was prepared in D10 medium. The chemical library used in screening were tested at 1 μM concentrations. Controls used were the same as the solvent applied, DMSO or water.
# The assay was performed by preparing the cells with PI (2 μg/mL or 5 μg/mL) in a D10 medium. […] At different age time points, reading was taken with a Synergy MX microplate reader (BioTek, Winooski, Vermont, United States) at 535 nm excitation and 617 nm emission.
compound,measurement,setting,value
"OC[C@H]1O[C@H](CO)[C@@H](O)[C@@H]1O [2,5-AM, 2,5-anhydro-D-mannitol]",growth of snflΔ deletion strain,[1],inhibited the growth of snflΔ deletion strain compared to wild-type strain
same,more live cells compared to the untreated control,IMR90 cells; 2.5 mM,32.33%
same,more live cells compared to the untreated control,IMR90 cells; 5 mM,48.08%
